The numbers were not newly measured in patent US20050158380A1, “Sustained release oral dosage forms of gabapentin” (priority 2002, published 2005), which cites them from elsewhere.

The half-life is the time in which the quantity being followed falls by half.

For this series the following is noted: in vivo.

Regarding `NCC1(CC(=O)O)CCCCC1` [Gabapentin, 1-(aminomethyl)cyclohexaneacetic acid], the half-life is 5 to 7 h.
